Consider 10 molecules from patent US6800637B2, “Antidepressant indolealkyl derivatives of heterocycle-fused benzodioxan methylamines” (Wyeth, priority 2002, dated 2004).

One test has as its target T1, serotonin transporter (Rattus norvegicus, UniProt P31652).
T1 construct: displace ^3H-paroxetine from male rat frontal cortical membranes; from tissue; host or cells: male rat frontal cortex membranes
As to the kind of experiment: Displacement of 3H-paroxetine from male rat frontal cortical membranes (serotonin transporter affinity). The format is binding. To be noted: read-out: 5-HT Transporter Affinity KI. Background: Displacement assays read how much labelled ligand stays bound in the presence of the test substance.

In a further test the target is T2, human 5-HT1A receptors (Homo sapiens, UniProt P08908).
T2 construct: expressed in transfected cells; host or cells: CHO cells
T2 sequence (P08908 1-422): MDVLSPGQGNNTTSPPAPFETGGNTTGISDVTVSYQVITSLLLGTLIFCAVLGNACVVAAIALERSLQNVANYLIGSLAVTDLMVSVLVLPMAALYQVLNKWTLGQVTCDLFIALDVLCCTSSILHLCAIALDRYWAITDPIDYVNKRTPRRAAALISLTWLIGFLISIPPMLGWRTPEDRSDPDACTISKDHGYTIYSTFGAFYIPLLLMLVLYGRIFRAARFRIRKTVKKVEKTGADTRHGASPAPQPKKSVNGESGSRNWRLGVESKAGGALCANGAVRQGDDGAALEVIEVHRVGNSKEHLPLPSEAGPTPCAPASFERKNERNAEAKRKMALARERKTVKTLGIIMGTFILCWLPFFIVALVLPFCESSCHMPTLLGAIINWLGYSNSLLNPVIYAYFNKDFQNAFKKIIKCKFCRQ
As to the kind of experiment: Displacement of [3H] 8-OHDPAT from 5-HT1A receptor, CHO cells stably transfected with human 5-HT1A receptors. As to conditions: CHO cells with human 5-HT1A receptors, read-out: 5-HT1A Receptor Affinity KI. The format is binding. From the text:
High affinity for the serotonin 5-HT1A receptor was established by testing the claimed compound's ability to displace [^3H] 8-OHDPAT (dipropylaminotetralin) from the 5-HT1A serotonin receptor following a modification of the procedure of Hall et al., J. Neurochem. 44, 1685 (1985) which utilizes CHO cells stably transfected with human 5-HT1A receptors.

For test [1], the target named is T3, cloned human 5HT1A receptors (Homo sapiens, UniProt P08908).
T3 construct: expressed in transfected cells
T3 sequence (P08908 1-422): T2 sequence (P08908 1-422)
As to the kind of experiment: 35S-GTPγS binding assay, membranes containing cloned human 5HT1A receptors. The format is biochemical. To be noted: for IC50: antagonist potency, reversal of the effects of the standard agonist 8-OHDPAT, read-out: 5-HT1A Function IC50; for Emax: maximum inhibitory effect, read-out: 5-HT1A Function (Imax). On the procedure: Antagonist activity at 5-HT1A receptors was established by using a ^35S-GTPγS binding assay similar to that used by Lazareno and Birdsall (Br. J. Pharmacol. 109: 1120, 1993), in which the test compound's ability to affect the binding of ^35S-GTPγS to membranes containing cloned human 5HT1A receptors was determined. Agonists produce an increase in binding whereas antagonists produce no increase but rather reverse the effects of the standard agonist 8-OHDPAT. The test compound's maximum inhibitory effect is represented as the Imax, while its potency is defined by the IC50.

T1 sequence (P31652 whole entry): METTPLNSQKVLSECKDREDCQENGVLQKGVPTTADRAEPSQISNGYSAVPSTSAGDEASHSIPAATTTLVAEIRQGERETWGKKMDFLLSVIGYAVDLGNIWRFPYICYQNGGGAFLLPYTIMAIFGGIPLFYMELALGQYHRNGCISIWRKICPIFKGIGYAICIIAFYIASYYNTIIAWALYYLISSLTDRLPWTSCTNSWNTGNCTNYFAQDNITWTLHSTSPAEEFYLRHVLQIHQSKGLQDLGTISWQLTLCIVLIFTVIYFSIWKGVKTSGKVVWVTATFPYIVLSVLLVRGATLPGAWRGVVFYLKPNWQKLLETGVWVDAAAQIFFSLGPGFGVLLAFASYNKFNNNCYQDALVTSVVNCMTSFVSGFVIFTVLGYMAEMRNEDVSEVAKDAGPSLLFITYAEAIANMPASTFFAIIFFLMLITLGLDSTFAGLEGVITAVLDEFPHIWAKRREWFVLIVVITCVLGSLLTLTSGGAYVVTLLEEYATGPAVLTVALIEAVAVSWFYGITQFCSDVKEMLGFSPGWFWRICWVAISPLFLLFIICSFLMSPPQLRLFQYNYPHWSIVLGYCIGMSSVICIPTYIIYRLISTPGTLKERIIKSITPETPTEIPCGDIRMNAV

Turning to `Cc1ccc2c3c(ccc2n1)OCC(CNCCc1csc2ccccc12)O3` (stereo not shown) [Example 21, N-[2-(1-Benzothien-3-yl)ethyl]-N-(8-methyl-2,3-dihydro-[1,4]dioxino[2,3-f]quinolin-2-ylmethyl)amine], the Ki on serotonin transporter came out at 62 nM. On human 5-HT1A receptors, the Ki came to 0.6 nM. In addition, in test [1], the IC50 turned out to be 25.9 nM and the Emax was 37.5%.

Consider `Cc1ccc2c3c(ccc2n1)OCC(CNCCCc1c[nH]c2ccccc12)O3` (stereo not shown) [Example 6, N-[3-(1H-Indol-3-yl)propyl]-N-(8-methyl-2,3-dihydro-[1,4]dioxino[2,3-f]quinolin-2-ylmethyl)amine], for which the Ki at serotonin transporter came to 3.57 nM. For the same molecule, on human 5-HT1A receptors, the Ki was found to be 0.39 nM. In addition, in test [1], the IC50 is 31.3 nM and the Emax stood at 86.6%.

In the case of `Cc1ccc2c3c(ccc2n1)OC[C@H](CN(C)CCCn1ccc2c(F)cccc21)O3` [Example 48], the Ki at serotonin transporter is 4.2 nM. At human 5-HT1A receptors, the Ki amounted to 24.7 nM. Also, in test [1], the IC50 is 500 nM and the Emax was found to be 100%.

Turning to `Cc1ccc2c3c(ccc2n1)OCC(CNCCCc1cn(C)c2c(F)cc(F)cc12)O3` (stereo not shown) [Example 26, N-[3-(5,7-Difluoro-1-methyl-1H-indol-3-yl)propyl]-N-(8-methyl-2,3-dihydro-[1,4]dioxino[2,3-f]quinolin-2-ylmethyl)amine], the Ki on serotonin transporter is 5.9 nM. Besides, at human 5-HT1A receptors, the Ki worked out at 3.26 nM. Further, in test [1], the IC50 is 180 nM and the Emax was found to be 90.2%.

For the molecule `Cc1ccc2c3c(ccc2n1)OCC(CN(C)CCCCc1c[nH]c2ccc(F)cc12)O3` (stereo not shown) [Example 43, [4-(5-Fluoro-1H-indol-3-yl)-butyl]-methyl-(8-methyl-2,3-dihydro-[1,4]dioxino[2,3-f]quinolin-2-ylmethyl}-amine], the figures for the Ki at serotonin transporter and at human 5-HT1A receptors were 0.5 nM and 13.1 nM, respectively. In addition, in test [1], the IC50 was found to be 344 nM. Further, the Emax in test [1] came out at 100%.

Consider `Cc1ccc2c3c(ccc2n1)OC[C@H](CNCCc1coc2ccccc12)O3` [Example 17], for which, at serotonin transporter, the Ki was 46 nM. Also, the Ki on human 5-HT1A receptors was 0.63 nM. Moreover, in test [1], the IC50 came out at 52 nM and the Emax was 78%.

With `Cc1nc2ccc3c(c2o1)O[C@@H](CNCCCc1c[nH]c2ccc(F)cc12)CO3` [Example 23, N-[3-(5-Fluoro-1H-indol-3-yl)propyl]-N-(2-methyl-7,8-dihydro-[1,4]dioxino[2,3-g][1,3]benzoxazol-8-ylmethyl)amine], the Ki at serotonin transporter was found to be 1.85 nM. The Ki on human 5-HT1A receptors came out at 0.7 nM. Moreover, in test [1], the IC50 is 19.3 nM and the Emax was 85.8%.

For `Cc1ccc2c3c(ccc2n1)OCC(CN(C)CCCc1c[nH]c2ccc(F)cc12)O3` (stereo not shown) [Example 7, N-[3-(5-Fluoro-1H-indol-3-yl)propyl]-N-methyl-N-(8-methyl-2,3-dihydro-[1,4]dioxino[2,3-f]quinolin-2-ylmethyl)amine], the figures for the Ki at serotonin transporter and on human 5-HT1A receptors were 0.38 nM and 3.43 nM, respectively. Moreover, the IC50 in test [1] stood at 73.9 nM. In addition, the Emax in test [1] worked out at 100%.

Consider `Cc1ccc2c3c(ccc2n1)OCC(CN(C)CCCc1c[nH]c2c(F)cc(F)cc12)O3` (stereo not shown) [Example 16, N-[3-(5,7-Difluoro-1H-indol-3-yl)propyl]-N-methyl-N-(8-methyl-2,3-dihydro-[1,4]dioxino[2,3-f]quinolin-2-ylmethyl)amine], for which the figures for the Ki at serotonin transporter and on human 5-HT1A receptors were 1.8 nM and 2.51 nM, respectively. Also, in test [1], the IC50 was 125 nM. In addition, the Emax in test [1] came to 100%.

Regarding `Cc1ccc2c3c(ccc2n1)OCC(CNCCCCc1c[nH]c2ccccc12)O3` (stereo not shown) [Example 9, N-[4-(1H-indol-3-yl)butyl]-N-(8-methyl-2,3-dihydro-[1,4]dioxino[2,3-f]quinolin-2-ylmethyl)amine], the Ki was determined as 4.7 nM on serotonin transporter and 0.46 nM on human 5-HT1A receptors. Moreover, the IC50 in test [1] came out at 23.7 nM. Further, the Emax in test [1] was 95.2%.

In general, Ki refers to the equilibrium dissociation constant of an inhibitor or competing ligand from its target. By IC50 is commonly meant the concentration needed to halve the response being measured.
